Laboratory results: patent publication US20080051598A1, “Process for Production of Polysubstituted Cyclobutanes and Polysubstituted Cyclobutenes” (priority 2004, published 2008)

Assays:
[1] = tested on: colon cancer cells (HCT116); assay: anti-tumor effects, growth of colon cancer cells; assay type: cell-based; conditions: concentration 25 μg/mL
Procedure: An evaluation was conducted of the anti-tumor effects of a compound 11 derived by chemical conversion of cyclobutane compound 10 synthesized according to the present invention. As a result, the growth of colon cancer cells (HCT116) was inhibited by a low concentration of 25 μg/mL of compound 11. [drawing 61]

[2] = tested on: cultured Plasmodium falciparum; assay: growth inhibition of malaria parasites; assay type: cell-based; conditions: read-out: concentration at which growth of cultured Plasmodium falciparum was 50% inhibited
Procedure: An evaluation was conducted of growth inhibition of malaria parasites by a compound 9 derived by chemical conversion of cyclobutane compound 8 synthesized according to the present invention. As a result, the growth of cultured Plasmodium falciparum was 50% inhibited by a low concentration of 1 μM of compound 9. [drawing 60]

| Structure (SMILES) | growth of colon cancer cells (HCT116) [1] | IC50 [2] [nM] |
| --- | --- | --- |
| CC(=O)OC12CCC1(C)C1CC(C)(C)CC2C=C1C (centres unmarked) [compound 11] | inhibited |  |
| OC[C@H]1C2CCC[C@@]23CCC[C@@]13O (some centres unmarked) [compound 9] |  | 1000 |
